Results published in US7456191B2, “N-Aryl-sulfoximine-substituted pyrimidines as CDK-and/or VEGF inhibitors, their production and use as pharmaceutical agents” (Schering AG, priority 2005, dated 2008).

Tests used:
CDK2/CycE = target: T1, CDK2/CycE (Homo sapiens, UniProt P24941); assay: CDK2/CycE kinase assay; assay type: biochemical; conditions: histone IIIS substrate, 0.5 μm ATP, 33P filter assay
T1 construct: GST; purchased ProQinase GmbH, Freiburg; host or cells: baculovirus-infected insect cells (Sf9)
Description: Recombinant CDK2- and CycE-GST-fusion proteins, purified from baculovirus-infected insect cells (Sf9), were purchased by ProQinase GmbH, Freiburg. Histone IIIs, which was used as a kinase substrate, was purchased by the Sigma Company.
(§1) CDK2/CycE (50 ng/measuring point) was incubated for 15 minutes at 22° C. in the presence of various concentrations of test substances (0 μm, as well as within the range of 0.01-100 μm) in assay buffer [50 mmol of tris/HCl, pH 8.0, 10 mmol of MgCl2, 0.1 mmol of Na ortho-vanadate, 1.0 mmol of dithiothreitol, 0.5 μm of adenosine triphosphate (ATP), 10 μg/measuring point of histone IIIS, 0.2 μCi/measuring point of ^33P-gamma ATP, 0.05% NP40, 12.5% dimethyl sulfoxide]. The reaction was stopped by adding EDTA solution (250 mmol, pH 8.0, 14 μl/measuring point).
(§2) From each reaction batch, 10 μl was applied to P30 filter strips (Wallac Company), and non-incorporated ^33P-ATP was removed by subjecting the filter strips to three washing cycles for 10 minutes each in 0.5% phosphoric acid. After the filter strips were dried for one hour at 70° C., the filter strips were covered with scintillator strips (MeltiLex™ A, Wallac Company) and baked for one hour at 90° C. The amount of incorporated ^33P (substrate phosphorylation) was determined by scintillation measurement in a gamma-radiation measuring device (Wallac).

MaTu-ADR = assay: Proliferation assay, MaTu-ADR; assay type: cell-based; conditions: Homo sapiens, 96 h; MaTu-ADR cells, 4 days, crystal violet
CDK1/CycB = target: T2, CDK1/CycB (Homo sapiens, UniProt P06493); assay: CDK1/CycB kinase assay; assay type: biochemical; conditions: histone IIIS substrate, 0.5 μm ATP, 33P filter assay
T2 construct: GST; purchased ProQinase GmbH, Freiburg; host or cells: baculovirus-infected insect cells (Sf9)
T2 sequence (P06493 whole entry): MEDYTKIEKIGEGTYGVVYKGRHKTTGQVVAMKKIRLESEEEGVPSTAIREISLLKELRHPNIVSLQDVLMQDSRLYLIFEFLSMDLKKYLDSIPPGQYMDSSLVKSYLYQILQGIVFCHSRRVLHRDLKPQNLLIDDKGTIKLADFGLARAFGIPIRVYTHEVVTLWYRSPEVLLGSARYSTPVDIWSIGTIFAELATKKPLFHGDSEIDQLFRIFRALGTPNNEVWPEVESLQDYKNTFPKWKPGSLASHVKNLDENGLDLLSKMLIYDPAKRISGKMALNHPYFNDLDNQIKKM
T2 sequence (P14635 whole entry partner): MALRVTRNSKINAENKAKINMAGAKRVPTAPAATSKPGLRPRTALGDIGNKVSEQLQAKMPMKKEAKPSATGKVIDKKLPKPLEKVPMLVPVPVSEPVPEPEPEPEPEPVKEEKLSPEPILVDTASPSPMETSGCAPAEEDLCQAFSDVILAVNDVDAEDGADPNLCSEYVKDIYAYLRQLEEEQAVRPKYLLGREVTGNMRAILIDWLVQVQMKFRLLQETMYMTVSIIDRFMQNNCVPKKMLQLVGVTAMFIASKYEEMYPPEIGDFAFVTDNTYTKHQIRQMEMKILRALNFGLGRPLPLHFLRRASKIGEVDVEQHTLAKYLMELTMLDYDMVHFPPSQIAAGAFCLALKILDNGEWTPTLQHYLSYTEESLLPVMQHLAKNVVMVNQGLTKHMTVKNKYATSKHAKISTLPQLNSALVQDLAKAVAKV
Description: Recombinant CDK1- and CycB-GST-fusion proteins, purified from baculovirus-infected insect cells (Sf9), were purchased from ProQinase GmbH, Freiburg. Histone IIIS, used as a kinase substrate, is available commercially from the Sigma Company.
as §1, with “CDK1/CycB (200” for “CDK2/CycE (50”
as §2, with “33P-ATP” for “^33P-ATP”, “33P” for “^33P”

Human Carboanhydrase-2 = Human Carboanhydrase-2 (Homo sapiens, UniProt P00918); assay: Carboanhydrase assay; assay type: biochemical; conditions: 4-nitrophenyl acetate hydrolysis, 400 nm; read-out: Inhibition of Human Carboanhydrase-2 IC50
Description: 2 μl of the test compounds, dissolved in DMSO (100× the final concentration), in a concentration range of 0.03-10 μm (final), was pipetted as 4× determinations into the holes of a 96-hole microtiter plate. Holes that contained the solvent without test compounds were used as reference values (1. Holes without carboanhydrase for correction of the non-enzymatic hydrolysis of the substrate, and 2. Holes with carboanhydrase for determining the activity of the non-inhibited enzyme).
188 μl of assay buffer (10 mmol of Tris/HCl, pH 7.4, 80 mmol of NaCl), with or without 3 units/hole on carboanhydrase I or II, was pipetted into the holes of the microtiter plate.

[1] = test system: MCF7, hormone-independent human breast cancer cells; assay: Proliferation assay, MCF7; assay type: cell-based; conditions: 96 h, 4 days, crystal violet
Source text: (§3) Cultivated human tumor cells (MCF7, hormone-independent human breast cancer cells, related to ATCC HTB22; NCI-H460, human non-small-cell lung cancer cells, ATCC HTB-177; DU 145, hormone-independent human prostate cancer cells, ATCC HTB-81; MaTu-MDR, hormone-independent, multiple pharmaceutical agent-resistant human breast cancer cells, EPO-GmbH, Berlin) were flattened out at a density of about 5000 cells/measuring point, depending on the growth rate of the respective cells, in a 96-well multititer plate in 200 μl of the corresponding growth medium. After 24 hours, the cells of one plate (zero-point plate) were colored with crystal violet (see below), while the medium of the other plates was replaced by fresh culture medium (200 μl), to which the test substances were added in various concentrations (0 μm, as well as in the range of 0.01-30 μm; the final concentration of the solvent dimethyl sulfoxide was 0.5%). The cells were incubated for 4 days in the presence of test substances. The cell proliferation was determined by coloring the cells with crystal violet: the cells were fixed by adding 20 μl/measuring point of an 11% glutaric aldehyde solution for 15 minutes at room temperature. After three washing cycles of the fixed cells with water, the plates were dried at room temperature. The cells were colored by adding 100 μl/measuring point of a 0.1% crystal violet solution (the pH was set at 3 by adding acetic acid). After three washing cycles of the colored cells with water, the plates were dried at room temperature. The dye was dissolved by adding 100 μl/measuring point of a 10% acetic acid solution. The extinction was determined by photometry at a wavelength of 595 nm. The change of cell growth, in percent, was calculated by normalization of the measured values to the extinction values of the zero-point plate (=0%) and the extinction of the untreated (0 μm) cells (=100%).

[2] = test system: DU 145, hormone-independent human prostate cancer cells; assay: Proliferation assay, DU145; assay type: cell-based; conditions: DU-145, 96 h, 4 days, crystal violet
Source text: as §3

[3] = target: T3, VEGF receptor tyrosine kinase-2 (Homo sapiens, UniProt P35968); assay: VEGF receptor-2 kinase assay; assay type: biochemical; conditions: poly-(Glu4Tyr) substrate, 8 μmol ATP, 33P filter assay; read-out: VEGF-R2 IC50
T3 construct: GST; made in house; host or cells: baculovirus-infected insect cells (Sf9)
T3 sequence (P35968 20-1356): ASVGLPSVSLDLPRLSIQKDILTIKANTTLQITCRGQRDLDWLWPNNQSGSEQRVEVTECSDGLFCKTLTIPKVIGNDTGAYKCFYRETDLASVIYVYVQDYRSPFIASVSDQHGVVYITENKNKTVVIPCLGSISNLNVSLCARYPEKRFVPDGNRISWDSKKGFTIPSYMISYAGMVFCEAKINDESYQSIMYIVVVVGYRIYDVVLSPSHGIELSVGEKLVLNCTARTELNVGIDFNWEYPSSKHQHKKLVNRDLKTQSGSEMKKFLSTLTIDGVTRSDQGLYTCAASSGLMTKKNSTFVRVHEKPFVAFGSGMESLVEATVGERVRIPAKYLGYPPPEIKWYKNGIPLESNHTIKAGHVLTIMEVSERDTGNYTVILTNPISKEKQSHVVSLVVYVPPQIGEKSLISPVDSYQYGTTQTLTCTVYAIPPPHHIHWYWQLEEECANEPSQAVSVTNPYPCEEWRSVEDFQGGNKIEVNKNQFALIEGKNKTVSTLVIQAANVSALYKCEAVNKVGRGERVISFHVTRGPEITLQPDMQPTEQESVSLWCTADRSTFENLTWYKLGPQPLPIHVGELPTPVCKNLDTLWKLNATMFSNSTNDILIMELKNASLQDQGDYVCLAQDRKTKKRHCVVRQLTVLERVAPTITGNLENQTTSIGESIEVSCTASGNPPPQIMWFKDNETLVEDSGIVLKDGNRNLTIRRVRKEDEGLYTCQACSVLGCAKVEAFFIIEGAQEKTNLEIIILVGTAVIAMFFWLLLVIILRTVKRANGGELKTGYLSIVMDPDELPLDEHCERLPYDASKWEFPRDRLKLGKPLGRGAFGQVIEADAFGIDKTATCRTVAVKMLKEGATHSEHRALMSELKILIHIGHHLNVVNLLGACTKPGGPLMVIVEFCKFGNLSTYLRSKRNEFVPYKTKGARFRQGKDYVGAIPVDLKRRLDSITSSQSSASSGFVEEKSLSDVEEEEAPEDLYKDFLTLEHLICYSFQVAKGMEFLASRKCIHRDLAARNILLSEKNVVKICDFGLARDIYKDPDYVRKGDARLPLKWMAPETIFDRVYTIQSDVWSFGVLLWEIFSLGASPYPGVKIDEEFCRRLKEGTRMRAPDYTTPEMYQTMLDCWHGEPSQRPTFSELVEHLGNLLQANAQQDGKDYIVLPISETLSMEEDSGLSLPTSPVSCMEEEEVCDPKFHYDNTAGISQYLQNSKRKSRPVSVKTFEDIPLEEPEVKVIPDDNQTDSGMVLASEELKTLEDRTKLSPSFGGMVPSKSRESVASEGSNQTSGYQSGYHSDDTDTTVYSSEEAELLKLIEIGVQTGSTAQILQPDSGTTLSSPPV
Description: VEGF Receptor-2 Kinase Assay
Recombinant VEGF receptor tyrosine kinase-2 was purified as a GST fusion protein from baculovirus-infected insect cells (Sf9). Poly-(Glu4Tyr), which was used as a kinase substrate, was purchased by the Sigma Company. VEGF receptor tyrosine kinase (90 ng/measuring point) was incubated for 10 minutes at 22° C. in the presence of various concentrations of test substances (0 μm, as well as within the range of 0.001-30 μm) in 30 μl of assay buffer [40 mmol of Tris/HCl, […], 10 mmol of MgCl2, 1 mmol of MnCl2, 3 μmol of Na ortho-vanadate, 1.0 mmol of dithiothreitol, 8 μmol of adenosine trisphosphate (ATP), 27 μg/measuring point of poly-(Glu4Tyr), 0.2 μCi/measuring point of 33P-gamma ATP, 1% dimethyl sulfoxide]. The reaction was stopped by adding EDTA solution (250 mmol, pH 7.0, 10 μl/measuring point).
as §2, with “33P-ATP” for “^33P-ATP”, “33P” for “^33P”

[4] = test system: NCI-H460, human non-small-cell lung cancer cells; assay: Proliferation assay, H460; assay type: cell-based; conditions: NCI-H460, 96 h, 4 days, crystal violet
Source text: as §3

SMILES	IC50 (CDK2/CycE)	IC50 (CDK1/CycB)	IC50 (Human Carboanhydrase-2)	IC50 [1]	IC50 [2]	IC50 [3]	IC50 [4]	IC50 (MaTu-ADR)
C[C@@H](Nc1nc(Nc2ccc(N=S(C)(C)=O)cc2)ncc1Br)C(C)(C)O [Example 1, N-{4-[(5-Bromo-4-{[(R)-2-hydroxy-1,2-dimethylpropyl]amino}-pyrimidin-2-yl)amino]phenyl}-S,S-dimethylsulfoximide]	27 nM	130 nM	> 10 µM	400 nM	600 nM	74 nM	500 nM	800 nM
C[C@@H](O)[C@@H](C)Oc1nc(Nc2ccc(N=S(C)(C)=O)cc2)ncc1Br [Example 3, N-{4-[(5-Bromo-4-{[(1R,2R)-2-hydroxy-1-methylpropyl]oxy}-pyrimidin-2-yl)amino]phenyl}S,S-dimethylsulfoximide]	12 nM	28 nM	> 10 µM	300 nM	1000 nM	44 nM	700 nM	500 nM
CC(C)[C@H](CO)Nc1nc(Nc2ccc(N=S(C)(C)=O)cc2)ncc1I [Example 4, N-{4-[(4-{[(R)-1-(Hydroxymethyl)-2-methylpropyl]amino}-5-iodopyrimidin-2-yl)amino]phenyl}-S,S-dimethylsulfoximide]	200 nM			2200 nM		88 nM		
Cc1cccc(Nc2nc(Nc3ccc(N=S(C)(C)=O)cc3)ncc2Br)n1 [Example 5, N-[4-({5-Bromo-4-[(6-methyl-2-pyridyl)amino]pyrimidin-2-yl}amino)phenyl]-S,S-dimethylsulfoximide]	340 nM	490 nM		700 nM		180 nM		
CS(C)(=O)=Nc1ccc(Nc2ncc(Br)c(Nc3ccccc3)n2)cc1 [Example 6, N-{4-[(4-Anilino-5-bromopyrimidin-2-yl)amino]phenyl}-S,S-dimethylsulfoximide]				500 nM	300 nM	73 nM	400 nM	300 nM
C[C@H](CO)Nc1nc(Nc2ccc(N=S(C)(C)=O)cc2)ncc1[N+](=O)[O-] [Example 7, N-{4-[(4-{[(R)-2-Hydroxy-1-methylethyl]amino}-5-nitropyrimidin-2-yl)amino]phenyl}-S,S-dimethylsulfoximide]						200 nM		
CS(C)(=O)=Nc1ccc(Nc2ncc(Br)c(N[C@H]3CCCC[C@@H]3O)n2)cc1 [Example 12, N-{4-[(5-Bromo-4-{[(1S,2S)-2-hydroxycyclohexyl]amino}pyrimidin-2-yl)amino]phenyl}S,S-dimethylsulfoximide]	460 nM					280 nM		
CS(C)(=O)=Nc1ccc(Nc2ncc(Br)c(N[C@@H]3CCOC3)n2)cc1 [Example 13, N-[4-({5-Bromo-4-[(R)-(2,3,4,5-tetrahydrofuran-3-yl)amino]pyrimidin-2-yl}amino)phenyl]-S,S-dimethylsulfoximide]						42 nM		

Continued by falling IC50 [3], values first:

IC50 (CDK2/CycE)	IC50 (CDK1/CycB)	IC50 (Human Carboanhydrase-2)	IC50 [1]	IC50 [2]	IC50 [3]	IC50 [4]	SMILES	IC50 (MaTu-ADR)
220 nM	400 nM				160 nM		C#CCNc1nc(Nc2ccc(N=S(C)(C)=O)cc2)ncc1C(F)(F)F [Example 10, S,S-Dimethyl-N-(4-{[4-(prop-2-yn-1-ylamino)-5-(trifluoromethyl)pyrimidin-2-yl]amino}phenyl)sulfoximide]	
260 nM	670 nM				140 nM		C#CCOc1nc(Nc2ccc(N=S(C)(C)=O)cc2)ncc1C(F)(F)F [Example 9, S,S-Dimethyl-N-(4-{[4-(prop-2-yn-1-yloxy)-5-(trifluoromethyl)pyrimidin-2-yl]amino}phenyl)sulfoximide]	
680 nM					54 nM		CS(C)(=O)=Nc1ccc(Nc2ncc(Br)c(NC3(CO)CCCC3)n2)cc1 [Example 11, N-{4-[(5-Bromo-4-{[1-(hydroxymethyl)cyclopentyl]amino}pyrimidin-2-yl)amino]phenyl}-S,S-dimethylsulfoximide]	
11 nM	32 nM	> 10 µM	600 nM	1000 nM	27 nM	800 nM	C[C@@H](O)[C@@H](C)Nc1nc(Nc2ccc(N=S(C)(C)=O)cc2)ncc1Br [Example 2, N-{4-[(5-Bromo-4-{[(1R,2R)-2-hydroxy-1-methylpropyl]amino}-pyrimidin-2-yl)amino]phenyl}-S,S-dimethylsulfoximide]	900 nM
